# Tests used:
# Type in all cases: in vivo
# [1] = tested on: warm season plant species; experiment: B2 Post-emergence efficacy Test 2, warm season plant species; details: 15 days after application, 0-100 scale, 0=no damage, 100=total kill; for Herbicidal activity, ABUTH: Abutilon theophrasti; for Herbicidal activity, AMARE: Amaranthus retroflexus; for Herbicidal activity, BIDPI: Bidens pilosa; for Herbicidal activity, BRAPL: Brachiaria plantaginea; for Herbicidal activity, DIGSA: Digitaria sanguinalis; for Herbicidal activity, ECHCG: Echinochloa crus galli; for Herbicidal activity, ELEIN: Eleisine indica; for Herbicidal activity, EPHHL: Euphorbia hetrophylla; for Herbicidal activity, GLXMA: Glycine max; for Herbicidal activity, IPOHE: Ipomoea hederacea; for Herbicidal activity, ORYSA: Orysa sativa; for Herbicidal activity, PANMI: Panicum miliaceum; for Herbicidal activity, SETFA: Setaria faberi; for Herbicidal activity, SIDSP: Sida spinosa; for Herbicidal activity, SORVU: Sorghum bicolour; for Herbicidal activity, XANST: Xanthium strumarium; for Herbicidal activity, ZEAMX: Zea mays
# Summary of the method: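 Herbicidal effect rated visually 0 (no damage) to 100 (complete kill) at 15 days post-treatment. Post-emergence spray at 12 days used an IF50 formulation with 0.2% v/v Genapol XO80 adjuvant; glasshouse 24/18 or 20/16 °C, 16 h light, 65% humidity.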
# [2] = tested on: Amaranthus retoflexus (AMARE); experiment: B1 Post-emergence efficacy Test 1; details: post-emergence application, 1000 g/ha, evaluated after 13 days
# Summary of the method: (§1)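 Eight days after sowing, potted plants in a glasshouse at 24/16 °C day/night were sprayed at 1000 g/ha. Thirteen days on, percentage plant damage was recorded and converted to a score from 1 (0-19%) to 5 (80-100%).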
# Solanum nigrum (SOLNI) = experiment: B1 Post-emergence efficacy Test 1; details: post-emergence application, 1000 g/ha, evaluated after 13 days
# Summary of the method: as §1
# Lolium perenne (LOLPE) = experiment: B1 Post-emergence efficacy Test 1; details: post-emergence application, 1000 g/ha, evaluated after 13 days
# Summary of the method: as §1
# [3] = tested on: Echinochloa crus-galli (ECHCG); experiment: B1 Post-emergence efficacy Test 1; details: post-emergence application, 1000 g/ha, evaluated after 13 days
# Summary of the method: as §1
# Setaria faberi (SETFA) = experiment: B1 Post-emergence efficacy Test 1; details: post-emergence application, 1000 g/ha, evaluated after 13 days
# Summary of the method: as §1
# [4] = tested on: Ipomoea hederacea (IPOHE); experiment: B1 Post-emergence efficacy Test 1; details: post-emergence application, 1000 g/ha, evaluated after 13 days
# Summary of the method: as §1
structure (smiles),measurement,setting,value
Cc1nn(C)c(=O)c(-c2c(F)ccc(Cl)c2CCc2ccc(F)cc2)c1OC(=O)C(C)C [Compound 1.125],"Herbicidal activity, ABUTH",[1]; 15 g/Ha,80
same,"Herbicidal activity, ABUTH",[1]; 30 g/Ha,90
same,"Herbicidal activity, ABUTH",[1]; 60 g/Ha,90
same,"Herbicidal activity, ABUTH",[1]; 125 g/Ha,90
same,"Herbicidal activity, ABUTH",[1]; 250 g/Ha,100
same,"Herbicidal activity, ABUTH",[1]; 500 g/Ha,100
same,"Herbicidal activity, AMARE",[1]; 15 g/Ha,80
same,"Herbicidal activity, AMARE",[1]; 30 g/Ha,90
same,"Herbicidal activity, AMARE",[1]; 60 g/Ha,90
same,"Herbicidal activity, AMARE",[1]; 125 g/Ha,100
same,"Herbicidal activity, AMARE",[1]; 250 g/Ha,100
same,"Herbicidal activity, AMARE",[1]; 500 g/Ha,100
same,"Herbicidal activity, BIDPI",[1]; 15 g/Ha,60
same,"Herbicidal activity, BIDPI",[1]; 30 g/Ha,60
same,"Herbicidal activity, BIDPI",[1]; 60 g/Ha,70
same,"Herbicidal activity, BIDPI",[1]; 125 g/Ha,70
same,"Herbicidal activity, BIDPI",[1]; 250 g/Ha,80
same,"Herbicidal activity, BIDPI",[1]; 500 g/Ha,100
same,"Herbicidal activity, BRAPL",[1]; 15 g/Ha,80
same,"Herbicidal activity, BRAPL",[1]; 60 g/Ha,80
same,"Herbicidal activity, BRAPL",[1]; 125 g/Ha,80
same,"Herbicidal activity, BRAPL",[1]; 250 g/Ha,70
same,"Herbicidal activity, BRAPL",[1]; 500 g/Ha,80
same,"Herbicidal activity, DIGSA",[1]; 15 g/Ha,0
same,"Herbicidal activity, DIGSA",[1]; 30 g/Ha,0
same,"Herbicidal activity, DIGSA",[1]; 60 g/Ha,0
same,"Herbicidal activity, DIGSA",[1]; 125 g/Ha,10
same,"Herbicidal activity, DIGSA",[1]; 250 g/Ha,30
same,"Herbicidal activity, DIGSA",[1]; 500 g/Ha,70
same,"Herbicidal activity, ECHCG",[1]; 15 g/Ha,70
same,"Herbicidal activity, ECHCG",[1]; 30 g/Ha,80
same,"Herbicidal activity, ECHCG",[1]; 60 g/Ha,80
same,"Herbicidal activity, ECHCG",[1]; 125 g/Ha,80
same,"Herbicidal activity, ECHCG",[1]; 250 g/Ha,90
same,"Herbicidal activity, ECHCG",[1]; 500 g/Ha,100
same,"Herbicidal activity, ELEIN",[1]; 15 g/Ha,40
same,"Herbicidal activity, ELEIN",[1]; 30 g/Ha,40
same,"Herbicidal activity, ELEIN",[1]; 60 g/Ha,70
same,"Herbicidal activity, ELEIN",[1]; 125 g/Ha,70
same,"Herbicidal activity, ELEIN",[1]; 250 g/Ha,80
same,"Herbicidal activity, ELEIN",[1]; 500 g/Ha,80
same,"Herbicidal activity, EPHHL",[1]; 15 g/Ha,90
same,"Herbicidal activity, EPHHL",[1]; 30 g/Ha,90
same,"Herbicidal activity, EPHHL",[1]; 60 g/Ha,100
same,"Herbicidal activity, EPHHL",[1]; 125 g/Ha,100
same,"Herbicidal activity, EPHHL",[1]; 250 g/Ha,100
same,"Herbicidal activity, EPHHL",[1]; 500 g/Ha,100
same,"Herbicidal activity, GLXMA",[1]; 15 g/Ha,40
same,"Herbicidal activity, GLXMA",[1]; 30 g/Ha,70
same,"Herbicidal activity, GLXMA",[1]; 60 g/Ha,70
same,"Herbicidal activity, GLXMA",[1]; 250 g/Ha,90
same,"Herbicidal activity, GLXMA",[1]; 500 g/Ha,90
same,"Herbicidal activity, IPOHE",[1]; 15 g/Ha,90
same,"Herbicidal activity, IPOHE",[1]; 30 g/Ha,100
same,"Herbicidal activity, IPOHE",[1]; 60 g/Ha,100
same,"Herbicidal activity, IPOHE",[1]; 125 g/Ha,100
same,"Herbicidal activity, IPOHE",[1]; 250 g/Ha,100
same,"Herbicidal activity, IPOHE",[1]; 500 g/Ha,100
same,"Herbicidal activity, ORYSA",[1]; 15 g/Ha,0
same,"Herbicidal activity, ORYSA",[1]; 30 g/Ha,0
same,"Herbicidal activity, ORYSA",[1]; 60 g/Ha,0
same,"Herbicidal activity, ORYSA",[1]; 125 g/Ha,0
same,"Herbicidal activity, ORYSA",[1]; 250 g/Ha,0
same,"Herbicidal activity, ORYSA",[1]; 500 g/Ha,0
same,"Herbicidal activity, PANMI",[1]; 15 g/Ha,20
same,"Herbicidal activity, PANMI",[1]; 30 g/Ha,30
same,"Herbicidal activity, PANMI",[1]; 60 g/Ha,50
same,"Herbicidal activity, PANMI",[1]; 125 g/Ha,50
same,"Herbicidal activity, PANMI",[1]; 250 g/Ha,70
same,"Herbicidal activity, PANMI",[1]; 500 g/Ha,80
same,"Herbicidal activity, SETFA",[1]; 15 g/Ha,0
same,"Herbicidal activity, SETFA",[1]; 30 g/Ha,10
same,"Herbicidal activity, SETFA",[1]; 60 g/Ha,20
same,"Herbicidal activity, SETFA",[1]; 125 g/Ha,20
same,"Herbicidal activity, SETFA",[1]; 250 g/Ha,20
same,"Herbicidal activity, SETFA",[1]; 500 g/Ha,100
same,"Herbicidal activity, SIDSP",[1]; 60 g/Ha,80
same,"Herbicidal activity, SIDSP",[1]; 125 g/Ha,90
same,"Herbicidal activity, SIDSP",[1]; 250 g/Ha,90
same,"Herbicidal activity, SIDSP",[1]; 500 g/Ha,100
same,"Herbicidal activity, SORVU",[1]; 15 g/Ha,0
same,"Herbicidal activity, SORVU",[1]; 30 g/Ha,50
same,"Herbicidal activity, SORVU",[1]; 60 g/Ha,50
same,"Herbicidal activity, SORVU",[1]; 125 g/Ha,70
same,"Herbicidal activity, SORVU",[1]; 250 g/Ha,80
same,"Herbicidal activity, SORVU",[1]; 500 g/Ha,90
same,"Herbicidal activity, XANST",[1]; 30 g/Ha,90
same,"Herbicidal activity, XANST",[1]; 60 g/Ha,90
same,"Herbicidal activity, XANST",[1]; 125 g/Ha,90
same,"Herbicidal activity, XANST",[1]; 250 g/Ha,90
same,"Herbicidal activity, XANST",[1]; 500 g/Ha,100
same,"Herbicidal activity, ZEAMX",[1]; 15 g/Ha,0
same,"Herbicidal activity, ZEAMX",[1]; 30 g/Ha,20
same,"Herbicidal activity, ZEAMX",[1]; 60 g/Ha,30
same,"Herbicidal activity, ZEAMX",[1]; 125 g/Ha,20
same,"Herbicidal activity, ZEAMX",[1]; 250 g/Ha,40
same,"Herbicidal activity, ZEAMX",[1]; 500 g/Ha,70
same,"percentage damage caused to the plant, five point scale, AMARE",[2],5 (5=80-100%)
same,"percentage damage caused to the plant, five point scale, SOLNI",Solanum nigrum (SOLNI),5 (5=80-100%)
same,"percentage damage caused to the plant, five point scale, LOLPE",Lolium perenne (LOLPE),5 (5=80-100%)
same,"percentage damage caused to the plant, five point scale, ECHCG",[3],5 (5=80-100%)
same,"percentage damage caused to the plant, five point scale, SETFA",Setaria faberi (SETFA),5 (5=80-100%)
same,"percentage damage caused to the plant, five point scale, IPOHE",[4],5 (5=80-100%)
